Assay results published in ChEMBL document CHEMBL2074221, “Breast cancer resistance protein (BCRP/ABCG2) induces cellular resistance to HIV-1 nucleoside reverse transcriptase inhibitors” (Mol Pharmacol, 2003).
*1 amine or outer side, *2 acyl side, *3 side chain or, on linkers, in order; H or OH if unused. Where a SMILES comes first, the peptide text is derived from it. Bridges are numbered along the chain shown (N, C = ends). Roman numbers before positions name the chains, in order. [ ]: non-standard residue; d: D form. Actinocin(9to1) = Cc1c2oc3c(C)ccc(C(=O)[*:1])c3nc-2c(C(=O)[*:2])c(N)c1=O; NMeV = CN[C@H](C(=O)O)C(C)C; Sar = CNCC(=O)O

How the values were obtained:
[1] = target: T1, Broad substrate specificity ATP-binding cassette transporter ABCG2 (Homo sapiens, UniProt Q9UNQ0); experiment: TP_TRANSPORTER: Cytotoxicity in MT-4 and MT-4/DOX500 cells; format: functional, cell-based
T1 sequence (Q9UNQ0 whole entry): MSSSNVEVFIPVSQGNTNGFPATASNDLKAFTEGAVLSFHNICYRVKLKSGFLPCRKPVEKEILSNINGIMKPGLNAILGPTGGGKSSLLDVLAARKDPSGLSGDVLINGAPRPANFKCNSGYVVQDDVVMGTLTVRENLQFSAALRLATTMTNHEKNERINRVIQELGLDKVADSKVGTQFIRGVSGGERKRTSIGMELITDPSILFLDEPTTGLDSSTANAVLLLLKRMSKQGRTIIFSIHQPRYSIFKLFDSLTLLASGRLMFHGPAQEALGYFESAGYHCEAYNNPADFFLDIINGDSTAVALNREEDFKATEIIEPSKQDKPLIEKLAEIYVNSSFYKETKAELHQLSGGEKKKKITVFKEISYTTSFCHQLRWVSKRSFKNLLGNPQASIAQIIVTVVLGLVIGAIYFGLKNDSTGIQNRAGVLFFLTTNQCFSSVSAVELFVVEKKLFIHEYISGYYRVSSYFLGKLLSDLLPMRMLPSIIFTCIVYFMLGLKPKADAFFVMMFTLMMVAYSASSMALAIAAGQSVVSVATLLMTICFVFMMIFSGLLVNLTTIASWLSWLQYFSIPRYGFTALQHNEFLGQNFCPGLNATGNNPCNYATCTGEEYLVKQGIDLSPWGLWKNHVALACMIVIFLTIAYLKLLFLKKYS

[2] = target: T1, Broad substrate specificity ATP-binding cassette transporter ABCG2; experiment: TP_TRANSPORTER: Anti-HIV-1 activity in MT-4 and MT-4/DOX500; format: functional, cell-based

Compound | Activity [1] | Activity [2]
CCc1c2c(nc3ccc(O)cc13)-c1cc3c(c(=O)n1C2)COC(=O)[C@]3(O)CC [7-ETHYL-10-HYDROXYCAMPTOTHECIN] | substrate [] | –
Cc1c2oc3c(C)ccc(C(=O)N[C@@H]4C(=O)N[C@H](C(C)C)C(=O)N5CCC[C@H]5C(=O)N(C)CC(=O)N(C)[C@@H](C(C)C)C(=O)O[C@@H]4C)c3nc-2c(C(=O)N[C@@H]2C(=O)N[C@H](C(C)C)C(=O)N3CCC[C@H]3C(=O)N(C)CC(=O)N(C)[C@@H](C(C)C)C(=O)O[C@@H]2C)c(N)c1=O [DACTINOMYCIN] (I: T[dV]P[Sar][NMeV] / II: T[dV]P[Sar][NMeV]; ester I:1-I:C, II:1-II:C; linker I:N-II:N via Actinocin(9to1)) | substrate [] | –
COc1cccc2c1C(=O)c1c(O)c3c(c(O)c1C2=O)C[C@@](O)(C(=O)CO)C[C@@H]3O[C@H]1C[C@H](N)[C@H](O)[C@H](C)O1 [DOXORUBICIN] | substrate [] | –
COc1cc([C@@H]2c3cc4c(cc3[C@@H](O[C@@H]3O[C@@H]5CO[C@@H](C)O[C@H]5[C@H](O)[C@H]3O)[C@H]3COC(=O)[C@H]23)OCO4)cc(OC)c1O [ETOPOSIDE] | substrate [] | –
CCc1c2c(nc3ccc(OC(=O)N4CCC(N5CCCCC5)CC4)cc13)-c1cc3c(c(=O)n1C2)COC(=O)[C@]3(O)CC [IRINOTECAN] | substrate [] | –
Nc1ccn([C@@H]2CS[C@H](CO)O2)c(=O)n1 [LAMIVUDINE] | – | substrate []
O=C1c2c(O)ccc(O)c2C(=O)c2c(NCCNCCO)ccc(NCCNCCO)c21 [MITOXANTRONE] | substrate [] | –
Cc1cn([C@H]2C[C@H](N=[N+]=[N-])[C@@H](CO)O2)c(=O)[nH]c1=O [ZIDOVUDINE] | substrate [] | substrate []
